We go through five molecules from patent publication US20260207636A1, “PRODRUGS OF DIMETHOXYPHENYL[…] SEROTONIN RECEPTORS” (priority 2022, published 2026).

Data set [1] can be described thus: Compound mouse plasma stability. The data set is classed as in vitro ADME. As to the method: (§1) Compounds 1-6 were assessed for their stability in various environments, including phosphate buffered saline (PBS), simulated gastric fluid (SGF) with pepsin, SGF without pepsin, and mouse plasma, using standard stability assay protocols.
Data set [2] in a line: Compound chemical stability in PBS (pH 6.5). It counts as physicochemical. As to the method: as §1
Data set [3] in a line: Compound chemical stability in SGF with pepsin. The data set is classed as physicochemical. The procedure: as §1
Data set [4] can be described thus: Compound chemical stability in SGF without pepsin. The data set is classed as physicochemical. As to the method:
as §1

Consider `COc1ccc(OC)c(CCN(Cc2cc(C)cc(Cl)c2)Cc2oc(=O)oc2C)c1` [Compound 2, 4-(((3-Chloro-5-methylbenzyl)(2,5-dimethoxyphenethyl)amino)methyl)-5-methyl-1,3-dioxol-2-one], for which the “% Remaining” value in data set [1] (0 minutes) was 100%; in data set [1] (30 minutes) it was 73%; in data set [1] (60 minutes), 61%; in data set [1] (120 minutes) it was 41%; in data set [1] (240 minutes) it was 20%; in data set [2] (0 minutes) it was 100%. In addition, the “% Remaining” value in data set [2] (30 minutes) is 66%; in data set [2] (60 minutes), 43%; in data set [2] (120 minutes) it was 15%; in data set [2] (240 minutes) it was 2%; in data set [3] (0 minutes), 100%; in data set [3] (30 minutes) it was 93%. Further, the “% Remaining” value is recorded as 93% in data set [3] (60 minutes); 84% in data set [3] (120 minutes); 70% in data set [3] (240 minutes); 100% in data set [4] (0 minutes); 100% in data set [4] (30 minutes); 96% in data set [4] (60 minutes). The “% Remaining” value in data set [4] (120 minutes) amounted to 86%; in data set [4] (240 minutes), 72%.

Consider `COc1ccc(OC)c(CCN(Cc2cc(C)cc(Cl)c2)C(=O)OCc2oc(=O)oc2C)c1` [Compound 3, (5-Methyl-2-oxo-1,3-dioxol-4-yl)methyl (3-chloro-5-methylbenzyl)(2,5-dimethoxyphenethyl)carbamate], for which the “% Remaining” value stood at 100% in data set [1] (0 minutes); 00% in data set [1] (30 minutes); 00% in data set [1] (60 minutes); 00% in data set [1] (120 minutes); 00% in data set [1] (240 minutes); 100% in data set [2] (0 minutes). For the same molecule, the “% Remaining” value is recorded as 97% in data set [2] (30 minutes); 94% in data set [2] (60 minutes); 89% in data set [2] (120 minutes); 67% in data set [2] (240 minutes); 100% in data set [3] (0 minutes); 105% in data set [3] (30 minutes). Besides, the “% Remaining” value in data set [3] (60 minutes) worked out at 105%; in data set [3] (120 minutes), 93%; in data set [3] (240 minutes), 106%; in data set [4] (0 minutes) it was 100%; in data set [4] (30 minutes) it was 105%; in data set [4] (60 minutes), 109%. For the same molecule, the “% Remaining” value in data set [4] (120 minutes) is reported as 106%; in data set [4] (240 minutes) it was 107%.

Turning to `COc1ccc(OC)c(CCN(Cc2cc(C)cc(Cl)c2)C(=O)OC(C)OC(=O)C(C)(C)C)c1` (stereo not shown) [Compound 4, 1-(((3-Chloro-5-methylbenzyl)(2,5-dimethoxyphenethyl)carbamoyl)oxy)ethyl pivalate], the “% Remaining” value in data set [1] (0 minutes) is given as 100%; in data set [1] (30 minutes), 2%; in data set [1] (60 minutes) it was 1%; in data set [1] (120 minutes), 00%; in data set [1] (240 minutes), 00%; in data set [2] (0 minutes), 100%. Besides, the “% Remaining” value is given as 102% in data set [2] (30 minutes); 101% in data set [2] (60 minutes); 102% in data set [2] (120 minutes); 116% in data set [2] (240 minutes); 100% in data set [3] (0 minutes); 93% in data set [3] (30 minutes). Besides, the “% Remaining” value in data set [3] (60 minutes) stood at 96%; in data set [3] (120 minutes) it was 94%; in data set [3] (240 minutes) it was 105%; in data set [4] (0 minutes), 100%; in data set [4] (30 minutes), 90%; in data set [4] (60 minutes), 89%. The “% Remaining” value in data set [4] (120 minutes) was 96%; in data set [4] (240 minutes), 88%.

As for `CCOC(=O)N(CCc1cc(OC)ccc1OC)Cc1cc(C)cc(Cl)c1` [Compound 5, Ethyl (3-chloro-5-methylbenzyl)(2,5-dimethoxyphenethyl)carbamate], the “% Remaining” value in data set [1] (0 minutes) was 100%; in data set [1] (30 minutes) it was 88%; in data set [1] (60 minutes) it was 86%; in data set [1] (120 minutes) it was 91%; in data set [1] (240 minutes), 87%; in data set [2] (0 minutes) it was 100%. The “% Remaining” value in data set [2] (30 minutes) is reported as 96%; in data set [2] (60 minutes) it was 99%; in data set [2] (120 minutes), 101%; in data set [2] (240 minutes) it was 94%; in data set [3] (0 minutes), 100%; in data set [3] (30 minutes), 97%. The “% Remaining” value in data set [3] (60 minutes) is reported as 92%; in data set [3] (120 minutes), 90%; in data set [3] (240 minutes), 80%; in data set [4] (0 minutes) it was 100%; in data set [4] (30 minutes), 100%; in data set [4] (60 minutes), 88%. Further, the “% Remaining” value in data set [4] (120 minutes) is on record as 94%; in data set [4] (240 minutes), 101%.

In the case of `COc1ccc(OC)c(CCN(Cc2cc(C)cc(Cl)c2)C(=O)CN)c1` [Compound 6, 2-Amino-N-(3-chloro-5-methylbenzyl)-N-(2,5-dimethoxyphenethyl)acetamide], the “% Remaining” value was determined as 100% in data set [1] (0 minutes); 85% in data set [1] (30 minutes); 82% in data set [1] (60 minutes); 89% in data set [1] (120 minutes); 86% in data set [1] (240 minutes); 100% in data set [2] (0 minutes). The “% Remaining” value in data set [2] (30 minutes) was 91%; in data set [2] (60 minutes) it was 94%; in data set [2] (120 minutes), 93%; in data set [2] (240 minutes), 93%; in data set [3] (0 minutes) it was 100%; in data set [3] (30 minutes) it was 95%. Further, the “% Remaining” value worked out at 97% in data set [3] (60 minutes); 96% in data set [3] (120 minutes); 94% in data set [3] (240 minutes); 100% in data set [4] (0 minutes); 98% in data set [4] (30 minutes); 99% in data set [4] (60 minutes). The “% Remaining” value in data set [4] (120 minutes) is reported as 95%; in data set [4] (240 minutes) it was 96%.
